# Test results as given in publication PMC12801355, “Peptide Amphiphiles Hitchhike on Endogenous Biomolecules for Enhanced Cancer Imaging and Therapy” (Advanced Materials (Deerfield Beach, Fla.), 2025).
# Where a SMILES comes first, the peptide text is derived from it. The star is where a group is joined. Palmitoyl = CCCCCCCCCCCCCCCC(=O)*
# How the values were obtained:
# [1] = tested on: HeLa human cervical cancer cells; assay: Uptake of SA‐E by wild type or LDL‐R knockout cells; assay type: cell-based; conditions: Cy5 SA‐E 20 µM, 10% FBS DMEM
# Protocol: For LDL‐R studies, 2 × 10^5 wild type or LDL‐R‐/‐ HeLa human cervical cancer cells were grown to near confluency in 96 well plates with black walls and flat glass bottom. Cy5 conjugated SA‐E (20 µM) was preincubated in DMEM containing 10% FBS for 30 min at 37 °C. Wells were aspirated, and 100 µL of the SA‐E containing DMEM was added. The plate was incubated for 30 min, as above. The wells were washed with sterile PBS, as above, media was added, and the plate was returned to the incubator for 1 h. Wells were aspirated, and nuclei were stained with Hoechst as above. Wells were aspirated, and 100 µL of phenol red free DMEM with 10% FBS was added to each well. Cells were then imaged for Cy5 conjugated SA‐E with a Zeiss Apotome 3 microscope at 20x and 63x objectives using Zen software.
# 4T1 tumor = assay: Tumor accumulation, live IVIS imaging; assay type: in vivo, mouse
# Protocol: (§1) For tumor accumulation studies in subcutaneous (HCT‐116, A375, TRAMP‐C2, MC38, LLC1, RG2, PDX cell lines, wild type or SR‐B1 ‐/‐ TRAMP‐C2, and wild type or LDL‐R ‐/‐ HeLa), intradermal (A375), or fat pad (4T1 and MCF‐7) tumors, cells were implanted as described above. When the tumors reached a size around ≈0.3–1 cm, mice were injected intravenously with 100 µL of ICG conjugated PAs (in PBS, 0.5 mM) or free ICG (in PBS, 0.5 mM). After probe injections, mice were imaged using the IVIS Spectrum (PerkinElmer) with excitation and emission wavelengths of 745 and 820 nm, respectively, at the specified time points. Living Image (PerkinElmer) software was used for all analyses. For MMTV mice experiments, mice were injected intravenously weekly with SA‐E (100 µL PBS, 0.5 mM) between 71 and 85 days of age and imaged 2 days later in the IVIS. […] SA‐E was injected intravenously (100 µL PBS, 0.5 mM), 2 days later the intestinal tissue was harvested, washed, and analyzed in the IVIS for ICG.
# [2] = tested on: small intestinal adenomas and colon polyps; assay: Detection of intestinal lesions in APC^min mice; assay type: in vivo, mouse
# Protocol: as §1
# [3] = tested on: LPs (HDL, LDL, VLDL) and albumin in pooled human plasma
# Protocol: FPLC experiments were performed using SA‐E, SA‐K, or No‐SA conjugated with ICG or SA‐E conjugated with MMAE at a final concentration of 250 µM in filtered PBS (10 mM, pH 7.4) with or without human plasma or purified LPs or albumin. For analysis of SA‐E interactions with purified LPs, VLDL, LDL, HDL, and human serum albumin were diluted in filtered PBS to approximate concentrations found in 10% human plasma: 0.0025, 0.13, 0.05, and 5mg mL^−1, respectively. SA‐E was incubated with the purified LP/protein mixture for 30 min at 37 °C before injection. For analysis of plasma interactions, PAs or No‐SA were incubated in PBS containing 10% pooled human plasma for 30 min at 37 °C before injection. The total volume injected for all samples was 400 µL. All data was collected on an ÄKTA pure chromatography system using the following running conditions: size exclusion chromatography on a Superose 6 Increase 10/300 GL column with a column volume (CV) of 30 mL, pre‐column pressure limit of 5 MPa, delta‐column pressure limit of 2.6 MPa, flow rate of 0.75 mL min^−1, in 100% PBS. The sample running method included first an equilibration step before injection of the sample with 100% PBS for 0.5 CV, followed by sample application via 1 mL capillary loop in 100% PBS, and finished with a linear elution consisting of 2 CV collected in 1 mL fractions. The UV‐Vis detector wavelengths were 250, 280, and 700 nm to detect MMAE, all proteins/LPs, and ICG, respectively.
# [4] = 4T1 tumor‐bearing mice, 50 nmol IV
smiles,measurement,setting,value
CCCCCCCCCCCCCCCC(=O)NCC(=O)NCC(=O)NCC(=O)N[C@@H](Cc1c[nH]cn1)C(=O)N[C@@H](C)C(=O)N[C@@H](C)C(=O)N[C@@H](CC(N)=O)C(=O)NCC(=O)N[C@@H](CCC(=O)O)C(=O)N[C@@H](CCC(=O)O)C(=O)N[C@@H](CS)C(=O)N[C@@H](CCC(=O)O)C(=O)O [SA‐E] (Palmitoyl-GGGHAANGEECE-OH),uptake in LDL‐R‐/‐ cells compared to wild type,[1],did not observe any significant change
same,day of 50% decrease in the tumor signal,4T1 tumor; [4],3 days
same,retention of tumor signal,4T1 tumor; [4],still detectable levels even 2 weeks after injection
same,time at which background signal was mostly cleared,4T1 tumor; [4],2 days
same,total tumor accumulation relative to No‐SA,4T1 tumor; [4],≈ 1.6 fold
same,time of maximum tumor fluorescence,"4T1 tumor; 4T1 tumor‐bearing mice, ICG conjugated, 50 nmol IV",11 h
same,retention in the tumor,"4T1 tumor; biodistribution studies, summary in introduction",more than 2 weeks
same,maximum TBR,"4T1 tumor; days 2 to 8, 50 nmol IV",5–6
same,colon polyps detected,[2]; 3 APC^min mice,4/4
same,small intestinal adenomas detected,[2]; 3 APC^min mice,71/71
same,"Colon, SA-E Negative lesions","[2]; mouse 1, of 2 lesions",0
same,"Colon, SA-E Positive lesions","[2]; mouse 1, of 2 lesions",2
same,"Small Intestine, SA-E Negative lesions","[2]; mouse 1, of 15 lesions",0
same,"Small Intestine, SA-E Positive lesions","[2]; mouse 1, of 15 lesions",15
same,"Colon, SA-E Negative lesions","[2]; mouse 2, of 1 lesion",0
same,"Colon, SA-E Positive lesions","[2]; mouse 2, of 1 lesion",1
same,"Small Intestine, SA-E Negative lesions","[2]; mouse 2, of 22 lesions",0
same,"Small Intestine, SA-E Positive lesions","[2]; mouse 2, of 22 lesions",22
same,"Colon, SA-E Negative lesions","[2]; mouse 3, of 1 lesion",0
same,"Colon, SA-E Positive lesions","[2]; mouse 3, of 1 lesion",1
same,"Small Intestine, SA-E Negative lesions","[2]; mouse 3, of 34 lesions",0
same,"Small Intestine, SA-E Positive lesions","[2]; mouse 3, of 34 lesions",34
same,"amount bound to albumin, lower than bound to HDL",[3],approximately two‐fold
